Key:
Experiment in all cases: cells
Type in all cases: functional, cell-based, Homo sapiens
LB2518-MEL = details: Homo sapiens, LB2518-MEL;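 also: growth inhibition of human LB2518-MEL cells, measured with a cell viability assay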
Description: SANGER: Inhibition of human LB2518-MEL cell growth in a cell viability assay.

C8166 = details: Homo sapiens, C8166;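 also: growth inhibition of human C8166 cells measured by a cell viability assay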
Description: SANGER: Inhibition of human C8166 cell growth in a cell viability assay.

SJSA-1 = details: Homo sapiens, SJSA-1;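 also: growth inhibition of human SJSA-1 cells, read out through a cell viability measurement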
Description: SANGER: Inhibition of human SJSA-1 cell growth in a cell viability assay.

TGW = details: Homo sapiens, TGW;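 also: growth inhibition of human TGW cells, read out with a cell viability assay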
Description: SANGER: Inhibition of human TGW cell growth in a cell viability assay.

TE-6 = details: Homo sapiens, TE-6;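 also: growth inhibition of TE-6 cells, read out with a cell viability assay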
Description: SANGER: Inhibition of human TE-6 cell growth in a cell viability assay.

A388 = details: Homo sapiens, A388;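 also: growth inhibition of human A388 cells, read out with a cell viability assay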
Description: SANGER: Inhibition of human A388 cell growth in a cell viability assay.

NCI-H1304 = details: Homo sapiens, NCI-H1304;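 also: growth inhibition of the cancer cell line, measured in a cell viability assay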
Description: SANGER: Inhibition of human NCI-H1304 cell growth in a cell viability assay.

CAS-1 = details: Homo sapiens, CAS-1;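 also: growth inhibition of CAS-1 cells, measured with a cell viability assay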
Description: SANGER: Inhibition of human CAS-1 cell growth in a cell viability assay.

HCC2157 = details: Homo sapiens, HCC2157;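 also: growth inhibition of the cancer cell line, read out as cell viability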
Description: SANGER: Inhibition of human HCC2157 cell growth in a cell viability assay.

KGN = details: Homo sapiens, KGN;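 also: growth inhibition of KGN cells, read out with a cell viability assay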
Description: SANGER: Inhibition of human KGN cell growth in a cell viability assay.

KM12 = details: Homo sapiens, KM12;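 also: KM12 cell growth inhibition, read out with a cell viability assay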
Description: SANGER: Inhibition of human KM12 cell growth in a cell viability assay.

CTB-1 = details: Homo sapiens, CTB-1
Description: SANGER: Inhibition of human CTB-1 cell growth in a cell viability assay.

A704 = details: Homo sapiens, A704;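 also: growth inhibition of human A704 cells, read out with a cell viability assay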
Description: SANGER: Inhibition of human A704 cell growth in a cell viability assay.

JAR = details: Homo sapiens, JAR;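 also: growth inhibition of human JAR cells determined with a cell viability assay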
Description: SANGER: Inhibition of human JAR cell growth in a cell viability assay.

MS-1 = details: Homo sapiens, MS-1;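 also: growth inhibition of MS-1 cells, read out by cell viability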
Description: SANGER: Inhibition of human MS-1 cell growth in a cell viability assay.

SK-N-FI = details: Homo sapiens, SK-N-FI;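 also: cell viability assay measuring growth inhibition of human SK-N-FI cells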
Description: SANGER: Inhibition of human SK-N-FI cell growth in a cell viability assay.

COLO-320-HSR = details: Homo sapiens, COLO-320-HSR;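 also: growth inhibition of COLO-320-HSR cells, determined with a cell viability assay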
Description: SANGER: Inhibition of human COLO-320-HSR cell growth in a cell viability assay.

LU-139 = details: Homo sapiens, LU-139
Description: SANGER: Inhibition of human LU-139 cell growth in a cell viability assay.

EOL1 = details: Homo sapiens, EOL1;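 also: growth inhibition of EoL-1 cells, read out by a cell viability assay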
Description: SANGER: Inhibition of human EoL-1-cell cell growth in a cell viability assay.

LU-134-A = details: Homo sapiens, LU-134-A
Description: SANGER: Inhibition of human LU-134-A cell growth in a cell viability assay.

D-263MG = details: Homo sapiens, D-263MG
Description: SANGER: Inhibition of human D-263MG cell growth in a cell viability assay.

ALL-PO = details: Homo sapiens, ALL-PO;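 also: growth inhibition of ALL-PO cells, read out by a cell viability assay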
Description: SANGER: Inhibition of human ALL-PO cell growth in a cell viability assay.

EW-16 = details: Homo sapiens, EW-16;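 also: growth inhibition of human EW-16 cells, read out as cell viability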
Description: SANGER: Inhibition of human EW-16 cell growth in a cell viability assay.

SCH = details: Homo sapiens, SCH;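 also: growth inhibition of human SCH cells, read out in a cell viability assay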
Description: SANGER: Inhibition of human SCH cell growth in a cell viability assay.

SNU-C2B = details: Homo sapiens, SNU-C2B;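 also: cell viability readout used to measure compound-driven suppression of SNU-C2B cell proliferation, IC50 marking half-maximal growth inhibition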
Description: SANGER: Inhibition of human SNU-C2B cell growth in a cell viability assay.

SNU1 = details: Homo sapiens, SNU1;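 also: growth inhibition of human NCI-SNU-1 cells, measured with a cell viability assay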
Description: SANGER: Inhibition of human NCI-SNU-1 cell growth in a cell viability assay.

VA-ES-BJ = details: Homo sapiens, VA-ES-BJ;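 also: growth inhibition of the VA-ES-BJ cell line, read out by a cell viability assay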
Description: SANGER: Inhibition of human VA-ES-BJ cell growth in a cell viability assay.

TE-11 = details: Homo sapiens, TE-11;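 also: growth inhibition of human TE-11 cells, read out by a cell viability assay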
Description: SANGER: Inhibition of human TE-11 cell growth in a cell viability assay.

PSN1 = details: Homo sapiens, PSN1;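 also: suppression of growth of human PSN1 cells, read out by a cell viability assay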
Description: SANGER: Inhibition of human PSN1 cell growth in a cell viability assay.

BT-474 = details: Homo sapiens, BT-474
Description: SANGER: Inhibition of human BT-474 cell growth in a cell viability assay.

RXF 393 = details: Homo sapiens, RXF 393;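 also: growth inhibition of human RXF 393 cells, read out with a cell viability assay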
Description: SANGER: Inhibition of human RXF393 cell growth in a cell viability assay.

Becker = details: Homo sapiens, Becker;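 also: growth inhibition of Becker cells, read out with a cell viability assay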
Description: SANGER: Inhibition of human Becker cell growth in a cell viability assay.

no-11 = details: Homo sapiens;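 also: growth inhibition of human NO-11 cells, read out with a cell viability assay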
Description: SANGER: Inhibition of human no-11 cell growth in a cell viability assay.

COLO-824 = details: Homo sapiens, COLO-824
Description: SANGER: Inhibition of human COLO-824 cell growth in a cell viability assay.

HCC1187 = details: Homo sapiens, HCC1187;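 also: growth inhibition of HCC1187 cells, read out with a cell viability assay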
Description: SANGER: Inhibition of human HCC1187 cell growth in a cell viability assay.

SNU-5 = details: Homo sapiens, SNU-5;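 also: cell viability readout used to measure growth inhibition in human NCI-SNU-5 cells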
Description: SANGER: Inhibition of human NCI-SNU-5 cell growth in a cell viability assay.

A253 cell line = details: Homo sapiens, A253;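 also: growth inhibition of A253 cells, read out with a cell viability assay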
Description: SANGER: Inhibition of human A253 cell growth in a cell viability assay.

NCI-H2126 = details: Homo sapiens, NCI-H2126;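 also: growth inhibition of the cancer cell line, determined with a cell viability readout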
Description: SANGER: Inhibition of human NCI-H2126 cell growth in a cell viability assay.

CTV-1 = details: Homo sapiens, CTV-1;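 also: growth inhibition of the cell line, read out with a cell viability assay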
Description: SANGER: Inhibition of human CTV-1 cell growth in a cell viability assay.

MFH-ino = details: Homo sapiens, MFH-ino;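 also: growth inhibition of human MFH-ino cells, read out by a cell viability assay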
Description: SANGER: Inhibition of human MFH-ino cell growth in a cell viability assay.

NMC-G1 = details: Homo sapiens, NMC-G1;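 also: growth inhibition of the NMC-G1 cell line, measured with a cell viability read-out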
Description: SANGER: Inhibition of human NMC-G1 cell growth in a cell viability assay.

LAN-6 = details: Homo sapiens, LAN-6;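 also: growth inhibition of LAN-6 cells, determined with a cell viability assay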
Description: SANGER: Inhibition of human LAN-6 cell growth in a cell viability assay.

ES6 = details: Homo sapiens, ES6;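 also: growth inhibition of human ES6 cells, read out with a cell viability assay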
Description: SANGER: Inhibition of human ES6 cell growth in a cell viability assay.

Calu-6 = details: Homo sapiens, Calu-6;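 also: growth of human Calu-6 cells, read out by a cell viability assay, IC50 marking inhibition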
Description: SANGER: Inhibition of human Calu-6 cell growth in a cell viability assay.

HEL = details: Homo sapiens, HEL;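 also: growth inhibition of HEL cells, read out with a cell viability assay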
Description: SANGER: Inhibition of human HEL cell growth in a cell viability assay.

NCI-H526 = details: Homo sapiens, NCI-H526;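 also: growth inhibition of the human NCI-H526 cell line, measured by a cell viability assay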
Description: SANGER: Inhibition of human NCI-H526 cell growth in a cell viability assay.

HCC2218 = details: Homo sapiens, HCC2218;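 also: cell viability assay read-out, with IC50 given as the concentration that inhibits growth of the cell line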
Description: SANGER: Inhibition of human HCC2218 cell growth in a cell viability assay.

HT-144 = details: Homo sapiens, HT-144
Description: SANGER: Inhibition of human HT-144 cell growth in a cell viability assay.

SF-126 = details: Homo sapiens, SF-126;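 also: growth inhibition of human SF126 cells, read out with a cell viability assay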
Description: SANGER: Inhibition of human SF126 cell growth in a cell viability assay.

KY821 = details: Homo sapiens, KY821;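 also: growth inhibition of human KY821 cells, read out by a cell viability assay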
Description: SANGER: Inhibition of human KY821 cell growth in a cell viability assay.

For `C=C(c1ccc(C(=O)O)cc1)c1cc2c(cc1C)C(C)(C)CCC2(C)C` [BEXAROTENE], the IC50 (LB2518-MEL) was over 8 µM, the IC50 (C8166) was over 8 µM and the IC50 (SJSA-1) was over 8 µM. It also gave an IC50 (TGW) of over 8 µM, an IC50 (TE-6) of over 8 µM and an IC50 (A388) of over 8 µM. For the same compound, the IC50 (NCI-H1304) was over 8 µM, the IC50 (CAS-1) was over 8 µM and the IC50 (HCC2157) was over 8 µM. For the same compound, the IC50 (KGN) was over 8 µM, the IC50 (KM12) was over 8 µM and the IC50 (CTB-1) was over 8 µM. For the same compound, the IC50 (A704) was over 8 µM, the IC50 (JAR) was over 8 µM and the IC50 (MS-1) was over 8 µM. The IC50 (SK-N-FI) was over 8 µM, the IC50 (COLO-320-HSR) was over 8 µM and the IC50 (LU-139) was over 8 µM. For the same compound, the IC50 (EOL1) was over 8 µM, the IC50 (LU-134-A) was over 8 µM and the IC50 (D-263MG) was over 8 µM. It also gave an IC50 (ALL-PO) of 5.86 µM, an IC50 (EW-16) of over 8 µM and an IC50 (SCH) of over 8 µM. The IC50 (SNU-C2B) was over 8 µM, the IC50 (SNU1) was over 8 µM and the IC50 (VA-ES-BJ) was over 8 µM. It also gave an IC50 (TE-11) of over 8 µM, an IC50 (PSN1) of 4 µM and an IC50 (BT-474) of over 8 µM. For the same compound, the IC50 (RXF 393) was over 8 µM, the IC50 (Becker) was over 8 µM and the IC50 (no-11) was over 8 µM. The IC50 (COLO-824) was over 8 µM, the IC50 (HCC1187) was over 8 µM and the IC50 (SNU-5) was over 8 µM. The IC50 (A253 cell line) was over 8 µM, the IC50 (NCI-H2126) was over 8 µM and the IC50 (CTV-1) was over 8 µM. The IC50 (MFH-ino) was 7.21 µM, the IC50 (NMC-G1) was over 8 µM and the IC50 (LAN-6) was over 8 µM. For the same compound, the IC50 (ES6) was over 8 µM, the IC50 (Calu-6) was over 8 µM and the IC50 (HEL) was over 8 µM. For the same compound, the IC50 (NCI-H526) was over 8 µM, the IC50 (HCC2218) was over 8 µM and the IC50 (HT-144) was over 8 µM. For the same compound, the IC50 (SF-126) was over 8 µM and the IC50 (KY821) was over 8 µM.

Work on `CC(C)CCN1c2nc(Nc3cc(F)c(O)c(F)c3)ncc2N(C)C(=O)C1C` (stereo not given) yielded an IC50 (LB2518-MEL) of over 5 µM, an IC50 (C8166) of over 5 µM and an IC50 (SJSA-1) of 2.67 µM. For the same compound, the IC50 (TGW) was 1.05 µM, the IC50 (TE-6) was over 5 µM and the IC50 (A388) was over 5 µM. For the same compound, the IC50 (NCI-H1304) was over 5 µM, the IC50 (CAS-1) was over 5 µM and the IC50 (HCC2157) was over 5 µM. For the same compound, the IC50 (KGN) was over 5 µM, the IC50 (KM12) was 3.12 µM and the IC50 (CTB-1) was 1.45 µM. The IC50 (A704) was over 5 µM, the IC50 (JAR) was over 5 µM and the IC50 (MS-1) was over 5 µM. For the same compound, the IC50 (SK-N-FI) was over 5 µM, the IC50 (COLO-320-HSR) was over 5 µM and the IC50 (LU-139) was 0.85 µM. It also gave an IC50 (EOL1) of 1.02 µM, an IC50 (LU-134-A) of 3.95 µM and an IC50 (D-263MG) of over 5 µM. For the same compound, the IC50 (ALL-PO) was over 5 µM, the IC50 (EW-16) was over 5 µM and the IC50 (SCH) was over 5 µM. It also gave an IC50 (SNU-C2B) of 3.39 µM, an IC50 (SNU1) of over 5 µM and an IC50 (VA-ES-BJ) of over 5 µM. The IC50 (TE-11) was over 5 µM, the IC50 (PSN1) was 3.06 µM and the IC50 (BT-474) was over 5 µM. For the same compound, the IC50 (RXF 393) was over 5 µM, the IC50 (Becker) was 2.66 µM and the IC50 (no-11) was over 5 µM. It also gave an IC50 (COLO-824) of 4.9 µM, an IC50 (HCC1187) of over 5 µM and an IC50 (SNU-5) of over 5 µM. It also gave an IC50 (A253 cell line) of over 5 µM, an IC50 (NCI-H2126) of over 5 µM and an IC50 (CTV-1) of 0.479 µM. For the same compound, the IC50 (MFH-ino) was over 5 µM, the IC50 (NMC-G1) was over 5 µM and the IC50 (LAN-6) was over 5 µM. It also gave an IC50 (ES6) of over 5 µM, an IC50 (Calu-6) of over 5 µM and an IC50 (HEL) of 2.7 µM. For the same compound, the IC50 (NCI-H526) was over 5 µM, the IC50 (HCC2218) was over 5 µM and the IC50 (HT-144) was over 5 µM. It also gave an IC50 (SF-126) of over 5 µM and an IC50 (KY821) of 0.888 µM.

With `COc1cccc2c1C(=O)c1c(O)c3c(c(O)c1C2=O)C[C@@](O)(C(=O)CO)C[C@@H]3O[C@H]1C[C@H](N)[C@H](O)[C@H](C)O1` [DOXORUBICIN] the IC50 (LB2518-MEL) was 0.413 µM, the IC50 (C8166) was 0.0333 µM and the IC50 (SJSA-1) was 0.111 µM. For the same compound, the IC50 (TGW) was over 1.02 µM, the IC50 (TE-6) was 0.47 µM and the IC50 (A388) was 0.0285 µM. The IC50 (NCI-H1304) was 0.321 µM, the IC50 (CAS-1) was 0.238 µM and the IC50 (HCC2157) was 0.064 µM. It also gave an IC50 (KGN) of 0.00634 µM, an IC50 (KM12) of 0.218 µM and an IC50 (CTB-1) of 0.0642 µM. The IC50 (A704) was over 1.02 µM, the IC50 (JAR) was 0.626 µM and the IC50 (MS-1) was 0.253 µM. It also gave an IC50 (SK-N-FI) of over 1.02 µM, an IC50 (COLO-320-HSR) of 0.513 µM and an IC50 (LU-139) of 0.345 µM. It also gave an IC50 (EOL1) of 0.0278 µM, an IC50 (LU-134-A) of 0.0677 µM and an IC50 (D-263MG) of 0.306 µM. The IC50 (ALL-PO) was 0.065 µM, the IC50 (EW-16) was 0.00191 µM and the IC50 (SCH) was over 1.02 µM. The IC50 (SNU-C2B) was 0.461 µM, the IC50 (SNU1) was 0.0659 µM and the IC50 (VA-ES-BJ) was 0.0334 µM. The IC50 (TE-11) was 0.241 µM, the IC50 (PSN1) was 0.0112 µM and the IC50 (BT-474) was 0.779 µM. The IC50 (RXF 393) was 0.335 µM, the IC50 (Becker) was 0.522 µM and the IC50 (no-11) was 0.322 µM. It also gave an IC50 (COLO-824) of over 1.02 µM, an IC50 (HCC1187) of 0.591 µM and an IC50 (SNU-5) of 0.57 µM. It also gave an IC50 (A253 cell line) of 0.0461 µM, an IC50 (NCI-H2126) of 0.192 µM and an IC50 (CTV-1) of 0.0161 µM. For the same compound, the IC50 (MFH-ino) was 0.00399 µM, the IC50 (NMC-G1) was 0.139 µM and the IC50 (LAN-6) was 0.315 µM. For the same compound, the IC50 (ES6) was 0.137 µM, the IC50 (Calu-6) was 0.254 µM and the IC50 (HEL) was 0.175 µM. The IC50 (NCI-H526) was 0.05 µM, the IC50 (HCC2218) was 0.182 µM and the IC50 (HT-144) was 0.00351 µM. For the same compound, the IC50 (SF-126) was 0.105 µM and the IC50 (KY821) was over 1.02 µM.
